Reference: patent publication US11919898B2, “Crystal form of azaindole derivative and use thereof” (Wuxi Life Fountain Biotech Co., Ltd, priority 2020, dated 2024)
Read-outs that look alike come from different tables or passages of the source.

Experiments:
[1] = Solubility test in media of various pH (water, SGF, FaSSIF, FeSSIF); type: physicochemical; settings: for solubility at 24 h: read-out: Solubility (mg/ml)_24 h
Experimental: The solubility of the crystal form A of the compound of Formula (II) in 4 media with different pH values was tested. About 10 mg of the crystal form A of the compound of Formula (II) was weighed, and then 5.0 mL of different media (water, SGF, FaSSIF, and FeSSIF) were added respectively, to form a suspension. A magnetron was added to the suspension and the suspension was stirred on a magnetic stirrer for 2 hrs, and a sample was taken and centrifuged after 4 hrs. The sample in the upper layer was determined for concentration by HPLC and determined for the pH value.
• FaSSIF: (1). 0.042 g of sodium hydroxide, 0.3438 g of sodium dihydrogen phosphate and 0.6186 g of sodium chloride were weighed, added to 90 mL of purified water and mixed well. The solution was adjusted to pH 6.5 with 1 N hydrochloric acid or 1 N sodium hydroxide, and made up to 100 mL with purified water. (2). 0.224 g of commercially available powder of FaSSIF/FeSSIF/FaSSGF was added to 50 mL of the buffer, stirred until dissolved, and made up to 100 mL with purified water. The prepared buffer was left to stand at room temperature for 2 hrs, and observed to be slightly milky white, which was ready for use (simulating intestinal juice in human before eating). • FeSSIF: (1). 0.404 g of sodium hydroxide, and 0.865 g of glacial acetic acid, 1.1874 g of sodium chloride were weighed and added to 90 mL of purified water and mixed well. The solution was adjusted to pH 5.0 with 1 N hydrochloric acid or 1 N sodium hydroxide, and made up to 100 mL with purified water. (2). 1.12 g of commercially available powder of FaSSIF/FeSSIF/FaSSGF was added to 50 mL of the buffer, stirred until dissolved, and made up to 100 mL with purified water. The prepared buffer was left to stand at room temperature for 2 hrs, and observed to be a clear liquid, which was ready for use (simulating intestinal juice in human after eating). • FaSSGF (SGF): (1). 0.2 g of sodium chloride was weighed and added to 90 mL of purified water and mixed well. The solution was adjusted to pH 1.8 with 1 N hydrochloric acid, made up to 100 mL with purified water, and left to stand until it was naturally cooled to room temperature (simulating human gastric juice before eating).

SNU-16 xenograft model = test: In vivo pharmacodynamic evaluation, SNU-16 xenograft model; parameters: species or system nude mice; settings: for TGI % (the last dose is given on day 30): SNU-16 xenograft model, nude mice
Experimental: SNU-16 cells in logarithmic growth phase were harvested, counted and resuspended in 50% PBS (pH 7.4, 0.01 M) and 50% Matrigel. The cell concentration was adjusted to 4×10^7 cells/mL, and the cells were then placed in an ice box. The cell suspension was aspirated with a 1 mL syringe and injected subcutaneously into the anterior right axilla of nude mice, at a dose of 200 μL/animal (8×10^6 cells/animal) to establish a SNU-16 xenograft model. The animal status was observed periodically, and the tumor size was measured using an electronic vernier caliper. The data was entered into an Excel spreadsheet, and the tumor volume was calculated, to monitor the tumor growth. When the tumor volume reached 100-300 mm^3, 35 tumor-bearing mice (with a tumor volume of 112-182 mm^3) in good health status having similar tumor volume were selected and randomized into 5 groups (n=7). The average tumor volume in each group was about 150 mm^3. After the test was started, the tumor size was measured twice a week, the tumor volume was calculated, and the body weight of the animal was weighed and recorded.
Analysis of tumor growth inhibition (TGI): The evolutionary growth potential of tumors was evaluated by the relationship between the tumor volume and time. The long axis (L) and short axis (W) of subcutaneous tumor were measured twice a week by a caliper, and the tumor volume (TV) was calculated by the formula ((L×W^2)/2). TGI was calculated from the difference between the median tumor volume of the mice in the solvent group and the median tumor volume of the mice in the drug group, and expressed as a percentage relative to the median tumor volume in the solvent control group.
The test data was calculated and statistically processed by SPSS19.0. Unless otherwise specified, the data were expressed as mean±standard error (Mean±SE), and the comparison between the two groups was analyzed by T-test. […] The solvent 30% PEG400 (containing 70% deionized water, v/v) alone was used as the negative control.

human FGFR4 = target: T1, human FGFR4 (Homo sapiens, UniProt P22455); test: 33P isotope-labeled kinase activity assay, FGFR4; type: biochemical; settings: ATP 100 μM
T1 construct: purchased Invitrogen P3054
T1 sequence (P22455 22-802): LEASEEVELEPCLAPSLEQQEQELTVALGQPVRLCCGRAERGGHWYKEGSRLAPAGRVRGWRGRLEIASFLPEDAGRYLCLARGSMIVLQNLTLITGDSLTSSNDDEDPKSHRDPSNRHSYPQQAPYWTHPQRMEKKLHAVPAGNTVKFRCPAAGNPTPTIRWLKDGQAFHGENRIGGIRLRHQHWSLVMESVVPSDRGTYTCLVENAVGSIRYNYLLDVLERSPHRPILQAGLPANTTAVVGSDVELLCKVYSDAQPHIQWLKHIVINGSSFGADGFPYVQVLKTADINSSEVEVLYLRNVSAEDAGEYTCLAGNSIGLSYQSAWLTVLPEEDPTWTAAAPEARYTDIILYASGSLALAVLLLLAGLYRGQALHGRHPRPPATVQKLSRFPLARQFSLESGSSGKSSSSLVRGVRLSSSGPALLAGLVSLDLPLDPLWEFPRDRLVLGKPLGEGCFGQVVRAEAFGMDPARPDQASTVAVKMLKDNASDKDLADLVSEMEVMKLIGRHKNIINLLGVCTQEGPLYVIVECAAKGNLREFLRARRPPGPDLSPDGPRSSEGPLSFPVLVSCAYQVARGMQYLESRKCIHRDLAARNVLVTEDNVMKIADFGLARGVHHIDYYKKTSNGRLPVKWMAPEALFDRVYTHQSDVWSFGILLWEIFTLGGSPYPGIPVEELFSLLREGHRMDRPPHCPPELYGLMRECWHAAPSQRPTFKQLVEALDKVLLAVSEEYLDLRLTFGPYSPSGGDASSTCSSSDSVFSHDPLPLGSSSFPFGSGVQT
Experimental: (§1) The IC50 value was tested by ^33P isotope-labeled kinase activity assay (Reaction Biology Corp) to evaluate the inhibition of the test compounds on human FGFR1, FGFR4, and c-Met.
(§2) Buffer: 20 mM Hepes (pH 7.5), 10 mM MgCl2, 1 mM EGTA, 0.02% Brij35, 0.02 mg/ml BSA, 0.1 mMNa3VO4, 2 mM DTT, and 1% DMSO.
(§3) Test procedure: At room temperature, the test compound was dissolved in DMSO to prepare a 10 mM solution for use. The substrate was dissolved in freshly prepared buffer, and the test kinase was added and mixed well. A solution of the test compound in DMSO was added to the mixed reaction solution using an acoustic technology (Echo550). The compound concentration in the reaction solution was 1 μM, 0.25 μM, […], 0.977 nM, 0.244 nM, 0.061 nM, 0.0153 nM, 0.00381 nM, or 10 μM, 2.50 μM, 0.62 μM, 0.156 μM, 39.1 nM, 9.8 nM, 2.4 nM, 0.61 nM, 0.15 nM, and 0.038 nM, respectively. After 15 min of incubation, ^33P-ATP (with an activity of 0.01 μCi/nL, the corresponding concentration is listed in Table 18) was added to start the reaction. The supplier's catalogue number, lot number, and concentration in the reaction solution of FGFR1, FGFR4, c-Met, and substrates thereof are listed in Table 18. […]

human c-Met = target: T2, human c-Met (Homo sapiens, UniProt P08581); test: 33P isotope-labeled kinase activity assay, c-Met; type: biochemical; settings: ATP 10 μM
T2 construct: purchased Invitrogen PV3143
T2 sequence (P08581 25-1390): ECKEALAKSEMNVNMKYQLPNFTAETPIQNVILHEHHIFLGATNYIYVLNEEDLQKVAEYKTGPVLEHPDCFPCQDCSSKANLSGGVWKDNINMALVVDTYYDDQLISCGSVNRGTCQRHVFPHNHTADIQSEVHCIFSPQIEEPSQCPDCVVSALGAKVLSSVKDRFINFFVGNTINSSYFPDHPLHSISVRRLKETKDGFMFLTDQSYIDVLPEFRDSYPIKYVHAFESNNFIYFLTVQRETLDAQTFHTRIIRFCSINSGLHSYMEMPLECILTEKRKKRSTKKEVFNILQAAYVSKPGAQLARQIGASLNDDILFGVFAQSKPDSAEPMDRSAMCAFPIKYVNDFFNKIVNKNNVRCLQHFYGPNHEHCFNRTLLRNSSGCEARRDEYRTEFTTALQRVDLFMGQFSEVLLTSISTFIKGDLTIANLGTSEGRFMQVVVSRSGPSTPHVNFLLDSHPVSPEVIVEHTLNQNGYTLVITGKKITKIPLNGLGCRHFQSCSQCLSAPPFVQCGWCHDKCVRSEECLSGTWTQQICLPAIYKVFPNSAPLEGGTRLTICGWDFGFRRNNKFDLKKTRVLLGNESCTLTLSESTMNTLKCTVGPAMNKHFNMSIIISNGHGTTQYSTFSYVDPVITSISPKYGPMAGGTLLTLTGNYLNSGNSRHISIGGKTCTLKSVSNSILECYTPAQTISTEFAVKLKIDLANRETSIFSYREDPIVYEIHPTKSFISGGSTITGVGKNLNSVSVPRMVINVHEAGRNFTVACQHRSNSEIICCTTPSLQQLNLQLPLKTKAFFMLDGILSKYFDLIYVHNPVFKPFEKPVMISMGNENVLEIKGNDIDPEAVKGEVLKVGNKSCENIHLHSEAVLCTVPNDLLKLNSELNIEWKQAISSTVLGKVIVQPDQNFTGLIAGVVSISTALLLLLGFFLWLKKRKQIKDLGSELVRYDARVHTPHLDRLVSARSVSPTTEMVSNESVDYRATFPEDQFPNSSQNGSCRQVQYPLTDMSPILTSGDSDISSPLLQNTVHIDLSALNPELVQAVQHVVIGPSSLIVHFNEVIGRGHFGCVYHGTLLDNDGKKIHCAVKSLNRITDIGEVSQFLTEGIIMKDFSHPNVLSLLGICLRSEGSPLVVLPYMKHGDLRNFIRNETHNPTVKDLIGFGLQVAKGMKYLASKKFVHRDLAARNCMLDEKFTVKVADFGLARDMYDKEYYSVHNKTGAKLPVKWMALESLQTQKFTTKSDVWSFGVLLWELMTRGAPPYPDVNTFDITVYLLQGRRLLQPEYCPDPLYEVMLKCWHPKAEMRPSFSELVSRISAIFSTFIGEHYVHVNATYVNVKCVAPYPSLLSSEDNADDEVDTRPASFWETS
Experimental: as §1, §2, §3

COc1cc(OC)c(F)c(Cc2c[nH]c3ncc(-c4cnn(CCO)c4)cc23)c1F.Cl
solubility at 24 h ([1]; SGF (FaSSGF), pH 1.25, simulated gastric fluid, thermodynamic from solid, SGF, pH (24 h) 1.25, suspension): 0.112 mg/mL
solubility at 24 h ([1]; pH 4.89, thermodynamic from solid, FeSSIF, pH (24 h) 4.89, suspension): 0.252 mg/mL
solubility at 24 h ([1]; pH 5.55, thermodynamic from solid, FaSSIF, pH (24 h) 5.55, suspension): 0.004 mg/mL
Solubility in words ([1]; simulated gastric juice before eating in human (SGF)): good
Solubility in words ([1]; simulated intestinal juice before eating (FaSSIF)): poor
Solubility in words ([1]; simulated intestinal juice of the small intestine after eating in human (FeSSIF)): good
Solubility in words ([1]; water): hard to dissolve in water
solubility at 24 h ([1]; water, pH 2.42, water, thermodynamic from solid): 0.009 mg/mL
TGI % (the last dose is given on day 30) (SNU-16 xenograft model; 2.5 mg/kg BID): 72%
TGI % (the last dose is given on day 30) (SNU-16 xenograft model; 5.0 mg/kg BID): 86%
Tumor inhibitory effect (SNU-16 xenograft model; tumor model SNU-16, nude mice): excellent tumor inhibitory effect
IC50 (human FGFR4): 1.49 nM
IC50 (human c-Met): 15.9 nM
